Experimental data reported in patent US20150125915A1, “Method for Producing Lactic Acid” (Kao Corporation, priority 2012, published 2015).

Experiments:
[1] = system: Rhizopus oryzae NBRC 5384 (=JCM14625); assay: Evaluation of ability to produce lactic acid-2, strain NBRC 5384; format: cell-based; conditions: 0.5% (w/v) at spore germination, control of the strain without surfactant = 100
Method: (1) Spore suspensions were prepared in the same way as in Production Example 1 using Rhizopus oryzae NBRC 4707, NBRC 4785, NBRC 5384 (=JCM14625), and NBRC 5418 strains obtained from a culture collection NBRC.
(2) Mycelia were prepared from the spores of each strain under the same conditions as in Production Example 2 involving stirring at 100 rpm using 60 mL of a PDB medium non-supplemented or supplemented with 0.5% (w/v) (final concentration) of the surfactant sorbitan monolaurate (Rheodol(R) SP-L10, manufactured by Kao Corp.).
(3) The total amount of the fungus bodies obtained in (2) was inoculated to 100 mL of an inorganic culture medium under the same conditions as in Production Example 3 to grow the mycelia. […]
30 g of the prepared wet fungus bodies of each strain of the genus Rhizopus was inoculated to 100 mL of an inorganic culture medium for lactic acid production evaluation (composition: 12.5% glucose, 0.1% ammonium sulfate, 0.06% potassium dihydrogen phosphate, 0.025% magnesium sulfate heptahydrate, 0.009% zinc sulfate heptahydrate, and 6.25% calcium carbonate; all the concentrations mean % (w/v)) applied to a 500-mL Erlenmeyer flask, and then cultured at 33.5° C. with stirring at 170 rpm. The production rate of lactic acid was determined by the same procedures as in Test Example 2. […]

[2] = Evaluation of foaming property by the inversion stirring method; format: physicochemical
Method: Each surfactant used in Test Example 2 was evaluated for its foaming properties by the inversion stirring method. 100 mL of a PDB medium non-supplemented or supplemented with 0.5% (w/v) (final concentration) of a surfactant was added to a graduated cylindrical container of 50 mm in diameter and then inversion-stirred for 300 seconds using a flat propeller while the propeller was inverted every 6 seconds at 1000 rpm. 30 seconds after the completion of stirring, the volume of foam in the medium was measured.

[3] = system: Rhizopus oryzae JCM14625 strain (=NBRC 5384); assay: Evaluation of ability to produce lactic acid-1 (production rate of lactic acid); format: cell-based; conditions: 0.5% (w/v) surfactant in PDB medium at spore germination; rate in the absence of the surfactant = 100
Method: Specifically, the mycelia of a fungus of the genus Rhizopus were prepared by the method of Production Example 2 using the surfactant and then grown by the method of Production Example 3. 6.0 g of the obtained wet fungus bodies of the genus Rhizopus was inoculated to 40 mL of an inorganic culture medium for lactic acid production evaluation (composition: 8.0% glucose, 0.1% ammonium sulfate, 0.06% potassium dihydrogen phosphate, 0.025% magnesium sulfate heptahydrate, 0.009% zinc sulfate heptahydrate, and 5.0% calcium carbonate; all the concentrations mean % (w/v)) applied to a 200-mL Erlenmeyer flask, and then cultured at 35° C. with stirring at 170 rpm. The supernatant of the culture medium was recovered every 2 hours from 30 minutes after the fungus body inoculation. Glucose and lactic acid were quantified by the procedures described later in Reference Example 1. A relative value of the production rate of lactic acid was determined on the basis of the calculation method described in Reference Example 2.
Glucose and lactic acid were quantified using an HPLC apparatus LaChrom Elite (manufactured by Hitachi High-Technologies Corp.). The analytical column used was a carbohydrate/organic acid analysis column HPX-87H (7.8 mm I.D.×30 cm, manufactured by Bio-Rad Laboratories, Inc.) connected with a guard column Cation H (4.6 mm I.D.×3.0 cm, manufactured by Bio-Rad Laboratories, Inc.). Elution was performed under conditions involving 10 mM sulfuric acid as an eluent, a flow rate of 0.85 mL/min, and a column temperature of 50° C. Glucose and lactic acid were detected using a differential refractive index detector (RI detector) and a UV detector (detection wavelength: 210 nm), respectively. The standard samples used were glucose (distributor code: 049-31165, manufactured by Wako Pure Chemical Industries Ltd.), and lithium L-lactate (product number: L2250, manufactured by Sigma-Aldrich Inc.). Quantification was performed on the basis of concentration calibration curves prepared using these standard samples.
The supernatant sample of each culture medium to be subjected to HPLC analysis was appropriately diluted in advance with 37 mM sulfuric acid and then applied to DISMIC-13cp (0.20 μm cellulose acetate membrane, manufactured by […] Group) or MULTI SCREEN MNHV45 (0.45 μm Durapore membrane, manufactured by EMD Millipore) to remove insoluble matter.
The concentration of lactic acid (unit: g of lactic acid/L of medium) in the supernatant sample of each culture medium was measured according to Reference Example 1 and divided by a time (unit: hr) required for change in lactic acid concentration to calculate the production rate of lactic acid per unit time (unit: g of lactic acid/L/hr). In addition, a relative value to the production rate of lactic acid under control conditions in each Production Example was determined.

Substance: Sorbitan monolaurate
- Production rate of lactic acid (relative value) [1]: 130 relative value
- Volume of foam relative to the volume of foam in the absence of the surfactant (in words) ([2]; 0.5% (w/v) in PDB medium): twice or less
- Volume of foam (relative value) ([2]; 0.5% (w/v) surfactant in PDB medium, 30 seconds after stirring, foam in the absence of the surfactant = 100): 150 relative value
- Production rate of lactic acid (relative value) [3]: 152 relative value
